# US20090181931A1, “ANTIVIRAL ACTIVITY OF CIDOFOVIR AGAINST ONCOLYTIC VIRUSES” (priority 2008, published 2009)
# pEC50: −log10 of the molar value. “And” between values parts separate entries of the source, which are not always exact repeats. Equal entries are not always repeated.
# How the values were obtained:
# [1] = XTT cell viability assay, CDV alone, A549 cells; assay type: cell-based; details: human; A549 cells, XTT; read-out: CC50, CDV concentration that reduce the relative cell viability to 50%
# Protocol: (§1) Cells frozen in liquid nitrogen were thawed in water bath at 37° C., seeded at T25 flask, and cultured at 70-90% sub-confluent monolayer. Cells were detached with trypsin, and prepared suspension at a concentration of 1.0×10^4 cells/ml.
# (§2) Cells were seeded in 96 well-plate (100 μL/well, 1000 cells/well), then cultured with 5% CO2 at 37° C.
# (§3) Viruses were diluted at MOI of 1 (OBP-301, OBP-202) in H1299 and 5 in A549 (PFU/cell). Medium in each well was removed, 150 μL of diluted virus solution was added to each well of the plate. 2 hours later, medium was aspirated and replaced with fresh medium containing 2% FCS and serially diluted CDV. Cells were incubated with 5% CO2 at 37° C. for 7 days after infection.
# (§4) 100 μL of PBS, 50 μL of XTT labeling reagent, and 1 μL of ion coupling reagent per well of plate were mixed.
# (§5) Medium in each well of plate was removed, and 150 μL of mixture prepared above was added to each well. Plate was incubated with 5% CO2 at 37° C. for 4 hours, and then calculated absorbance at 450 nm and 690 nm. Protection was determined by the formula below: […]
# A549 cells = experiment: XTT cell viability assay, CDV alone, A549 cells; assay type: cell-based; details: for Relative cell viability Ave. / Relative cell viability: A549, no virus, 7 days; for Relative cell viability: single wells, dihydrate
# Protocol: as §1, §2, §3, §4, §5
# Telomelysin (OBP-301) [2] = experiment: XTT assay, protection from cytopathic effect of Telomelysin in H1299 cells; assay type: cell-based, adenovirus; details: for Protection (%) Ave. / Protection (%): Telomelysin MOI 1, H1299, 7 days; for Protection (%): single wells, dihydrate
# Protocol: as §1, §2, §3, §4
# (§6) Medium in each well of plate was removed, and 150 μL of mixture prepared above was added to each well. Plate was incubated with 5% CO2 at 37° C. for 4 hours, and then calculated absorbance at 450 nm and 690 nm. Protection was determined by the formula below:
# (§7) Protection(%)={OD(AdV(+):CDV(+))−OD(AdV(+):CDV(−))}/{OD(AdV(−):CDV(+))−OD(AdV(+):CDV(−))}×100.
# Telomelysin (OBP-301) [3] = experiment: XTT assay, protection from cytopathic effect of Telomelysin in A549 cells; assay type: cell-based, adenovirus; details: for Protection (%) Ave. / Protection (%): Telomelysin MOI 5, A549, 7 days; for Protection (%): single wells, dihydrate
# Protocol: as §1, §2, §3, §4, §6, §7
# Telomelysin (OBP-301) [4] = experiment: Real-time quantitative PCR, viral E1A copy number, Telomelysin in H1299 cells; assay type: cell-based, adenovirus; details: for E1A copy number, % (relative to 0 μM) / E1A copy number/ng DNA: Telomelysin MOI 10, H1299, 24 hours
# Protocol: (§8) Cells were seeded in 6-well plate (2 mL/well, 2×10^5 cells/well), and incubated with 5% CO2 at 37° C.
# (§9) Viruses were diluted at a MOI of 10. Medium in each well was removed, 500 μL of diluted virus solution was added to each well of the plate. Plates were incubated with 5% CO2 at 37° C. for 2 hours with gently shaking every 15 minutes. Medium was aspirated, washed with PBS twice, and replaced with fresh medium containing 2% FCS and serially diluted CDV. Cells were incubated with 5% CO2 at 37° C. for 24 hours after infection.
# (§10) Cells were detached with Trypsin-EDTA, and collected by centrifuging. Total DNA was extracted using QIAamp™ DNA Mini Kit according to manufacture's instructions with some modifications: addition of 20 μL of RNaseA in each sample when adding ProK. DNA was eluted by 50˜100 μL of D. W.
# (§11) Concentration of DNA was determined by measuring O.D.260. Each DNA samples was diluted by D. W. at a concentration of 5 ng/μL.
# (§12) Master-mix for E1A primer was prepared using LightCycler™ Faststart DNAMaster SYBR Green™ according to Table 1. Standard DNA was prepared by serially 10 times dilution of pCRII-E1A plasmid (1×10^9, 1×10^8, 1×10^7, 1×10^6, 1×10^5, 1×10^4, and 1×10^3 copies/μL). 2 μL of Sample or Standard DNA was and 18 μL of Master mix were added into capillaries (total volume was 20 μL per capillary).
# (§13) Q-PCR was performed according to the program of Table 2 (LightCycler quicksystem 350S). Results obtained here were analyzed using LightCycler softwere.
# [5] = system: Wild-type adenovirus (OBP-202); experiment: Real-time quantitative PCR, viral E1A copy number, wild-type adenovirus in H1299 cells; assay type: cell-based; details: for E1A copy number, % (relative to 0 μM) / E1A copy number/ng DNA: Wt-Ad MOI 10, H1299, 24 hours
# Protocol: as §8, §9, §10, §11, §12, §13
compound,measurement,setting,value
"Nc1ccn(C[C@@H](CO)OCP(=O)(O)O)c(=O)n1.O.O [CDV, 1-[(S)-3-hydroxy-2-(phosphonomethoxy)propyl]cytosine dihydrate]",CC50 at 7 days,[1],107 µM
same,toxicity of CDV itself,"A549 cells; A549 cells, high concentrations",toxic
same,Relative cell viability Ave.,A549 cells; CDV 10 μM,0.969
same,Relative cell viability,A549 cells; CDV 10 μM,0.993 and 0.938 and 0.962 and 0.982
same,Relative cell viability Ave.,A549 cells; CDV 20 μM,0.935
same,Relative cell viability,A549 cells; CDV 20 μM,0.982 and 0.877 and 0.924 and 0.958
same,Relative cell viability Ave.,A549 cells; CDV 30 μM,0.912
same,Relative cell viability,A549 cells; CDV 30 μM,0.944 and 0.883 and 0.881 and 0.939
same,Relative cell viability Ave.,A549 cells; CDV 40 μM,0.908
same,Relative cell viability,A549 cells; CDV 40 μM,0.951 and 0.860 and 0.910 and 0.911
same,Relative cell viability Ave.,A549 cells; CDV 50 μM,0.852
same,Relative cell viability,A549 cells; CDV 50 μM,0.819 and 0.842 and 0.862 and 0.884
same,Relative cell viability Ave.,A549 cells; CDV 60 μM,0.798
same,Relative cell viability,A549 cells; CDV 60 μM,0.755 and 0.792 and 0.809 and 0.837
same,Relative cell viability Ave.,A549 cells; CDV 70 μM,0.720
same,Relative cell viability,A549 cells; CDV 70 μM,0.709 and 0.703 and 0.747 and 0.719
same,Relative cell viability Ave.,A549 cells; CDV 80 μM,0.696
same,Relative cell viability,A549 cells; CDV 80 μM,0.656 and 0.707 and 0.737 and 0.683
same,Relative cell viability Ave.,A549 cells; CDV 90 μM,0.544
same,Relative cell viability,A549 cells; CDV 90 μM,0.502 and 0.552 and 0.606 and 0.518
same,Relative cell viability Ave.,A549 cells; CDV 100 μM,0.471
same,Relative cell viability,A549 cells; CDV 100 μM,0.511 and 0.451 and 0.482 and 0.438
same,Protection (%) Ave.,Telomelysin (OBP-301) [2]; CDV 0.32 μM,7.983%
same,Protection (%),Telomelysin (OBP-301) [2]; CDV 0.32 μM,10.293% and 11.665% and 3.980% and 5.993%
same,Protection (%) Ave.,Telomelysin (OBP-301) [2]; CDV 1.6 μM,0.274%
same,Protection (%),Telomelysin (OBP-301) [2]; CDV 1.6 μM,3.339% and −5.901% and 1.144% and 2.516%
same,Protection (%) Ave.,Telomelysin (OBP-301) [2]; CDV 8 μM,3.065%
same,Protection (%) Ave.,Telomelysin (OBP-301) [2]; CDV 40 μM,83.829%
same,Protection (%),Telomelysin (OBP-301) [2]; CDV 40 μM,88.243% and 72.049% and 84.950% and 90.073%
same,Protection (%) Ave.,Telomelysin (OBP-301) [2]; CDV 200 μM,29.369%
same,Protection (%),Telomelysin (OBP-301) [2]; CDV 200 μM,29.414% and 30.878% and 28.957% and 28.225%
same,Telomelysin-mediated cytopathic effect,"Telomelysin (OBP-301) [2]; H1299 cells, FIG. 1A",apparently inhibited
same,pEC50,"Telomelysin (OBP-301) [2]; NCI-H1299, Telomelysin, H1299 cells, XTT, read-out: EC50, CDV concentration that archive the protection to 50%",4.69
same,Telomelysin-mediated cytopathic effect,"Telomelysin (OBP-301) [3]; A549 cells, FIG. 1A",apparently inhibited
same,Protection (%) Ave.,Telomelysin (OBP-301) [3]; CDV 10 μM,1.376%
same,Protection (%),Telomelysin (OBP-301) [3]; CDV 10 μM,1.991% and 0.387% and 1.136%
same,Protection (%) Ave.,Telomelysin (OBP-301) [3]; CDV 20 μM,7.535%
same,Protection (%),Telomelysin (OBP-301) [3]; CDV 20 μM,7.548% and 4.342% and 7.388% and 10.862%
same,Protection (%) Ave.,Telomelysin (OBP-301) [3]; CDV 30 μM,40.094%
same,Protection (%),Telomelysin (OBP-301) [3]; CDV 30 μM,41.269% and 33.413% and 44.208% and 41.483%
same,Protection (%) Ave.,Telomelysin (OBP-301) [3]; CDV 40 μM,56.713%
same,Protection (%),Telomelysin (OBP-301) [3]; CDV 40 μM,61.951% and 52.118% and 53.881% and 58.904%
same,Protection (%) Ave.,Telomelysin (OBP-301) [3]; CDV 50 μM,61.202%
same,Protection (%),Telomelysin (OBP-301) [3]; CDV 50 μM,69.539% and 54.148% and 62.592% and 58.530%
same,Protection (%) Ave.,Telomelysin (OBP-301) [3]; CDV 60 μM,67.295%
same,Protection (%),Telomelysin (OBP-301) [3]; CDV 60 μM,68.310% and 63.768% and 66.440% and 70.661%
same,Protection (%) Ave.,Telomelysin (OBP-301) [3]; CDV 70 μM,62.538%
same,Protection (%),Telomelysin (OBP-301) [3]; CDV 70 μM,66.226% and 58.424% and 61.844% and 63.661%
same,Protection (%) Ave.,Telomelysin (OBP-301) [3]; CDV 80 μM,56.740%
same,Protection (%),Telomelysin (OBP-301) [3]; CDV 80 μM,54.790% and 51.637% and 59.279% and 61.256%
same,Protection (%) Ave.,Telomelysin (OBP-301) [3]; CDV 90 μM,49.806%
same,Protection (%),Telomelysin (OBP-301) [3]; CDV 90 μM,51.423% and 50.514% and 50.942% and 46.346%
same,Protection (%) Ave.,Telomelysin (OBP-301) [3]; CDV 100 μM,38.090%
same,Protection (%),Telomelysin (OBP-301) [3]; CDV 100 μM,33.948% and 41.590% and 36.834% and 39.987%
same,pEC50,"Telomelysin (OBP-301) [3]; Telomelysin, A549 cells, XTT, read-out: EC50, CDV concentration that archive the protection to 50%",4.44
same,"E1A copy number, % (relative to 0 μM)",Telomelysin (OBP-301) [4]; CDV 0.16 μM,97.60%
same,E1A copy number/ng DNA,Telomelysin (OBP-301) [4]; CDV 0.16 μM,1.461E+08 copy number/ng DNA
same,"E1A copy number, % (relative to 0 μM)",Telomelysin (OBP-301) [4]; CDV 0.8 μM,98.93%
same,E1A copy number/ng DNA,Telomelysin (OBP-301) [4]; CDV 0.8 μM,1.481E+08 copy number/ng DNA
same,"E1A copy number, % (relative to 0 μM)",Telomelysin (OBP-301) [4]; CDV 4 μM,91.32%
same,E1A copy number/ng DNA,Telomelysin (OBP-301) [4]; CDV 4 μM,1.367E+08 copy number/ng DNA
same,"E1A copy number, % (relative to 0 μM)",Telomelysin (OBP-301) [4]; CDV 20 μM,47.07%
same,E1A copy number/ng DNA,Telomelysin (OBP-301) [4]; CDV 20 μM,7.046E+07 copy number/ng DNA
same,"E1A copy number, % (relative to 0 μM)",Telomelysin (OBP-301) [4]; CDV 100 μM,9.99%
same,E1A copy number/ng DNA,Telomelysin (OBP-301) [4]; CDV 100 μM,1.496E+07 copy number/ng DNA
same,pEC50,"Telomelysin (OBP-301) [4]; NCI-H1299, H1299 cells, real-time quantitative PCR, read-out: EC50 (E1A), CDV concentration that reduces the relative E1A copy number of Telomelysin to 50%",4.71
same,Viral E1A copy number,"Telomelysin (OBP-301) [4]; Telomelysin, H1299 cells, dose-dependent manner",reduced
same,"E1A copy number, % (relative to 0 μM)",[5]; CDV 0.16 μM,117.49%
same,E1A copy number/ng DNA,[5]; CDV 0.16 μM,6.152E+07 copy number/ng DNA
same,"E1A copy number, % (relative to 0 μM)",[5]; CDV 0.8 μM,95.65%
same,E1A copy number/ng DNA,[5]; CDV 0.8 μM,5.008E+07 copy number/ng DNA
same,"E1A copy number, % (relative to 0 μM)",[5]; CDV 4 μM,74.69%
same,E1A copy number/ng DNA,[5]; CDV 4 μM,3.911E+07 copy number/ng DNA
same,"E1A copy number, % (relative to 0 μM)",[5]; CDV 20 μM,32.83%
same,E1A copy number/ng DNA,[5]; CDV 20 μM,1.719E+07 copy number/ng DNA
same,"E1A copy number, % (relative to 0 μM)",[5]; CDV 100 μM,4.79%
same,E1A copy number/ng DNA,[5]; CDV 100 μM,2.509E+06 copy number/ng DNA
same,Viral E1A copy number,"[5]; wild-type AdV, H1299 cells, dose-dependent manner",reduced
